“Also recorded” adds a separate entry of the source.
Tests used:
[1] = test system: HT22 cells; experiment: Relative mtDNA copy number (qPCR); assay type: cell-based, mouse
Description: Quantitative Reverse Transcription PCR (qPCR) Analysis. HT22 cells were seeded onto 60 mm dishes at a density of 140,000 cells/dish in DMEM supplemented with 10% FBS and 1% antibiotics. After the desired treatments, total RNA was extracted using the RNeasy Mini Kit (Qiagen, Cat #74104, Hilden, Germany). cDNA was synthesized using SuperScript III First-Strand Synthesis System for qPCR (Invitrogen, Cat #18080051, Carlsbad, CA). Amplification was performed with TaqMan Fast Advanced Master Mix (ThermoFisher Scientific, Cat #4444556, Carlsbad, CA) using a QuantStudio 3 Real-Time PCR Systems (ThermoFisher Scientific, CA). The primer pairs were used as follows: CNR1 (Forward, 5′-[…]-3′; Reverse, 5′-[…]-3′); CNR2 (Forward, 5′-[…]-3′; Reverse, 5′-GCCGGGAGGACAGGATAAT-3′). The expression of the GAPDH gene was measured for normalization. The mouse Mitochondrial DNA Copy Number Kit was used (Detroit R&D, Cat #MCN3, Detroit, MI) according to the manufacturer's instructions. Relative fold change was calculated using the 2^(−ΔΔCt) method. Samples were analyzed in three dishes per independent experiment (n=3).

[2] = test system: SH-SY5Y neuroblastoma cells; experiment: Mitochondrial Membrane Potential Assay (JC-10) in SH-SY5Y cells; assay type: cell-based; conditions: 4 hr
Description: SH-SY5Y neuroblastoma cells were cultured in 1:1 (v/v) DMEM/F12 medium (Invitrogen, Cat #11330032, Carlsbad, CA) supplemented with 1% non-essential amino acids (Invitrogen, Cat #11140050), 10% FBS, and 1% antibiotics including penicillin and streptomycin. Cell cultures were incubated at 37° C. in a fully humidified atmosphere containing 10% CO2.
(§1) Mitochondrial Membrane Potential Assay. Cells seeded at 5,000 cells/well onto 96-well black walled plates were treated with test compounds at the desired concentrations under the culture condition described above. The mitochondrial uncoupler FCCP at 2 μM was used as a reference control. After the desired treatments for 4 hr, the cells were subjected to a JC-10 mitochondrial membrane potential assay according to the manufacturer's instruction. Fluorescence intensities (Ex/Em=490/525 nm, and Ex/Em=540/590 nm) of each well were monitored on a SpectraMax M5 microplate reader. The ratio of fluorescence intensity (590/525 nm) was used to determine the mitochondrial membrane potential (ΔΨm). Decreasing ratios indicate mitochondrial membrane depolarization. Samples were analyzed in eight to sixteen wells per independent experiment (n=8-16). Results were verified by live-cell imaging under a fluorescence microscope.

[3] = test system: HT22 mt-GFP WT cells; experiment: Cell viability after RSL3 with/without FCCP (CyQUANT DNA-based assay, fluorescence microscopy), mt-GFP WT cells; parameters: species or system mouse
[4] = test system: HT22 cells; experiment: Seahorse XF Analysis (mitochondrial stress test) in HT22 cells; assay type: cell-based, mouse
Description: Seahorse XF Analysis. The assay procedure was previously described. Cellular oxygen consumption rates (OCR) were assayed with a XF Cell Mito Stress Test Kit using a Seahorse XFe96 Extracellular Flux Analyzer (Seahorse Bioscience, North Billerica, MA). Complete Seahorse XF DMEM assay medium was supplemented with 10 mM glucose, 1 mM pyruvate and 2 mM L-glutamine, at pH 7.4. Mitochondrial ETC inhibitors were used at the following concentrations: 1.5 μM oligomycin, 2 μM FCCP, and 0.5 μM of a 1:1 mixture of rotenone and antimycin A. Analyses were conducted using Wave software and XF Report Generators (Agilent Technologies). The sensor cartridge for the XFe analyzer was hydrated overnight at 37° C. before the experiment. OCR data were normalized for total protein/well. Each condition was analyzed in 20-40 wells per independent experiment (n=20-40).
For HT22 cells, 3,000 cells/well were seeded onto the Seahorse XFe96 plates under normal culture condition as described above. The next day, cells were pretreated with CBN at the desired concentrations for 1 hr followed by addition of RSL3 (50 nM) and coincubation for 16 hr. Immediately before the assay, the culture medium in the plates was replaced with complete Seahorse XF DMEM assay medium. The plates were incubated for 1 hr at 37° C. prior to the XF Cell Mito Stress tests according to the manufacturer's instructions.

[5] = test system: BV2 microglia; experiment: Mitochondrial Membrane Potential Assay (JC-10) in BV2 cells; assay type: cell-based; conditions: 4 hr
Description: BV2 microglial cells were cultured in low glucose DMEM supplemented with GlutaMAX (Invitrogen, Cat #10567014, Carlsbad, CA), 1 mM sodium pyruvate, 10% FBS, and 1% antibiotics including penicillin and streptomycin. Cell cultures were incubated at 37° C. in a fully humidified atmosphere containing 10% CO2.
as §1

[6] = test system: HT22 cells; experiment: MitoTracker Assay (mitochondrial mass); assay type: cell-based, mouse
Description: MitoTracker Assay. HT22 cells were seeded onto 96-well black walled plates at a density of 5,000 cells/well in DMEM supplemented with 10% FBS and 1% antibiotics. After the desired treatments, MitoTracker Orange CM−H2TMRos (Ex/Em=554/576 nm) and Hoechst 33342 (Ex/Em=360/460 nm) dyes were added to the cells and incubated under the same culture condition for 2 hr. Fluorescence was measured on a SpectraMax M5 microplate reader. Experiments were performed according to the manufacturer's instructions. Data were normalized for total protein/well. Each condition was analyzed in sixteen wells per independent experiment (n=16). Results were presented as the percentage of the controls with vehicle alone. Results were verified by live-cell imaging under a fluorescence microscope.

[7] = test system: HT22 cells; experiment: Total GSH Measurements; assay type: cell-based, mouse; conditions: 5 μM
Description: Total GSH Measurements. HT22 cells were seeded onto 35 mm dishes at a density of 70,000 cells/dish in DMEM supplemented with 10% FBS and 1% antibiotics. After the desired treatments, the cells were scraped into ice-cold PBS and the cell pellets collected by centrifugation (500 g). The pellets were resuspended in PBS and 10% sulfosalicylic acid was added at a final concentration of 3.3% to the cells. Proteins were pelleted by centrifugation and the supernatant neutralized. Total GSH was determined by the recycling assay based on the reduction of 5,5-dithiobis(2-nitrobenzoic acid) with glutathione reductase and NADPH and normalized to protein recovered from the acid-precipitated pellet by treatment with 0.2 N NaOH at 37° C. overnight and measured by the BCA protein assay (Pierce, Rockford, IL, USA). Samples were analyzed in four dishes per independent experiment (n=4).

SMILES: CCCCCc1cc(O)c2c(c1)OC(C)(C)c1ccc(C)cc1-2 [CBN, 6,6,9-Trimethyl-3-pentyl-benzo[c]chromen-1-ol]
- mtDNA copy number with RSL3 ([1]; 50 nM RSL3, 16 hr): sustain mtDNA at the control level
- mtDNA copy number, compound alone ([1]; 5 μM): did not induce significant changes
- decrease of ΔΨm [2]: also observed
- protection against RSL3-induced cell death, no FCCP pretreatment ([3]; 16 hr): strong and equivalent protection
- protection against RSL3 after FCCP pretreatment ([3]; FCCP 5 μM 24 hr, then 16 hr): protected; also recorded: protective
- cell numbers after FCCP pretreatment, co-treatment with compound ([3]; FCCP 24 hr, CBN additional 16 hr): did not further change the cell numbers
- ATP production, compound alone ([4]; 10 μM): partially reduced ATP production
- basal and maximal mitochondrial respiration, compound alone ([4]; 10 μM): partially decreased both basal and maximal mitochondrial respiration
- mitochondrial respiration and ATP production with RSL3 ([4]; 10 μM pretreatment, RSL3 50 nM 16 hr): maintenance of mitochondrial respiration and ATP production
- decrease of ΔΨm [5]: also observed
- increase of MitoTracker fluorescence (mitochondrial mass) ([6]; 5 μM, 16 hr, vs control group): 4.9%
- mitochondrial mass with RSL3 ([6]; RSL3-induced oxytosis/ferroptosis): preserve the mitochondrial mass at the control level
- total GSH levels [7]: no impact

Source: patent US20240261302A1, “METHODS OF TREATING NEURODEGENERATIVE DISEASES OR CONDITIONS” (FloraScience Inc., priority 2023, published 2024)
